Measured values published in the kinase profiling compilation of Christmann-Franck et al. (2016).

Assays:
EIF2AK2 (human) = EIF2AK2 (human) (UniProt P19525); assay: IMAP-FP
EIF2AK3 (human) = EIF2AK3 (human) (UniProt Q9NZJ5); assay: IMAP-FP
PKN1 (human) = PKN1 (human) (UniProt Q16512); assay: IMAP-FP
PLK2 (human) = PLK2 (human) (UniProt Q9NYY3); assay: IMAP-FP
SRPK1 (human) = SRPK1 (human) (UniProt Q96SB4); assay: IMAP-FP
AKT3 (human) = AKT3 (human) (UniProt Q9Y243); assay: Caliper, Mobility shift assay off-chip
AURKA (human) = AURKA (human) (UniProt O14965); assay: Caliper, Mobility shift assay off-chip
BRSK1 (human) = BRSK1 (human) (UniProt Q8TDC3); assay: Caliper, Mobility shift assay off-chip
Sequence of BRSK1 (human) (Q8TDC3 whole entry, looked up): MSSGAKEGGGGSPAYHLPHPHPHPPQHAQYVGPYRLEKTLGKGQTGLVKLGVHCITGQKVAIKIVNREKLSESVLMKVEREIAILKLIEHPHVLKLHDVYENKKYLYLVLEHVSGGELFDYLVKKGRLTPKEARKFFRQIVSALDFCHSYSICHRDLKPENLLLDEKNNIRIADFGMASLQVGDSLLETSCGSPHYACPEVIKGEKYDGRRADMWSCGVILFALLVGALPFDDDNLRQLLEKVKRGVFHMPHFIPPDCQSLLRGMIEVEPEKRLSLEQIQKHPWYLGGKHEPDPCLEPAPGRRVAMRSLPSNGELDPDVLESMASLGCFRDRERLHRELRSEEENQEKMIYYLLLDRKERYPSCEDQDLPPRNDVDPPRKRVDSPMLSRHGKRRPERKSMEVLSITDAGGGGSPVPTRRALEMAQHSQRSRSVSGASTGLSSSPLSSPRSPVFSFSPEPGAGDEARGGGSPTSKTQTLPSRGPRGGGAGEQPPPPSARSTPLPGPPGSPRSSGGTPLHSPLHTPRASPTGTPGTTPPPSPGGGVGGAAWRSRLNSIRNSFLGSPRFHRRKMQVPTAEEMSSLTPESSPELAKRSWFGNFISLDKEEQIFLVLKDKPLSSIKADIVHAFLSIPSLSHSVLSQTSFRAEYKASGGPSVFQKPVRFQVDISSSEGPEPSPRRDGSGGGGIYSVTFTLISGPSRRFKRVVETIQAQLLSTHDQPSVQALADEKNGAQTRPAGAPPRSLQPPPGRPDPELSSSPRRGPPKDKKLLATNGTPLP

CDK6 (human) = CDK6 (human) (UniProt Q00534); assay: Caliper, Mobility shift assay off-chip
Sequence of CDK6 (human) (Q00534 whole entry, looked up): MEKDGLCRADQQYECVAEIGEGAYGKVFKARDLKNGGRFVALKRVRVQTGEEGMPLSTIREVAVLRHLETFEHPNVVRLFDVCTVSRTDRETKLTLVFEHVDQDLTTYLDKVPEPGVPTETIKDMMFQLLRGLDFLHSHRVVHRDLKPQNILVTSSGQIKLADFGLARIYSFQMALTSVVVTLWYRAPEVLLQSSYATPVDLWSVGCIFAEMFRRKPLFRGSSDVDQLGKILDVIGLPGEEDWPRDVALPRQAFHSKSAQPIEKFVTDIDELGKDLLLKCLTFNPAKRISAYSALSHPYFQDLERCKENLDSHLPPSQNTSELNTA

EPHA3 (human) = EPHA3 (human) (UniProt P29320); assay: Caliper, Mobility shift assay off-chip
FLT1 (human) = FLT1 (human) (UniProt P17948); assay: Caliper, Mobility shift assay off-chip
GSK3A (human) = GSK3A (human) (UniProt P49840); assay: Caliper, Mobility shift assay off-chip
HCK (human) = HCK (human) (UniProt P08631); assay: Caliper, Mobility shift assay off-chip
INSR (human) = INSR (human) (UniProt P06213); assay: Caliper, Mobility shift assay off-chip
ITK (human) = ITK (human) (UniProt Q08881); assay: Caliper, Mobility shift assay off-chip
JAK1 JH1 JH2 (human) = JAK1 JH1 JH2 (human) (UniProt P23458); assay: Caliper, Mobility shift assay off-chip
JAK3 JH1 JH2 (human) = JAK3 JH1 JH2 (human) (UniProt P52333); assay: Caliper, Mobility shift assay off-chip
MET (human) = MET (human) (UniProt P08581); assay: Caliper, Mobility shift assay off-chip
MST4 (human) = MST4 (human) (UniProt Q9P289); assay: Caliper, Mobility shift assay off-chip
Sequence of MST4 (human) (Q9P289 whole entry, looked up): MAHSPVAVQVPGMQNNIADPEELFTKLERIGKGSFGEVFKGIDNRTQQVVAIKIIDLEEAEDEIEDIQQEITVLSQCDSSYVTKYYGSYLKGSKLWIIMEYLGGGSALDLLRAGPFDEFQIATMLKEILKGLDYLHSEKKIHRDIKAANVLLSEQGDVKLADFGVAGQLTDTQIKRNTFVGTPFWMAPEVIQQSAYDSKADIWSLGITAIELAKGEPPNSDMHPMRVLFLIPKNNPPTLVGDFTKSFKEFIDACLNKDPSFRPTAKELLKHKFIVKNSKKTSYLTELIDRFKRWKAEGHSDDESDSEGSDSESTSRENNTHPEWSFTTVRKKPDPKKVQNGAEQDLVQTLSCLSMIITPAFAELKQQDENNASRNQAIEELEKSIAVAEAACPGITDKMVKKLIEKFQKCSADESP

NEK9 (human) = NEK9 (human) (UniProt Q8TD19); assay: Caliper, Mobility shift assay off-chip
PAK3 (human) = PAK3 (human) (UniProt O75914); assay: Caliper, Mobility shift assay off-chip
PIM3 (human) = PIM3 (human) (UniProt Q86V86); assay: Caliper, Mobility shift assay off-chip
PRKCD (human) = PRKCD (human) (UniProt Q05655); assay: Caliper, Mobility shift assay off-chip
ROCK2 (human) = ROCK2 (human) (UniProt O75116); assay: Caliper, Mobility shift assay off-chip
ROS1 (human) = ROS1 (human) (UniProt P08922); assay: Caliper, Mobility shift assay off-chip
RPS6KA5 KD1 KD2 (human) = RPS6KA5 KD1 KD2 (human) (UniProt O75582); assay: Caliper, Mobility shift assay off-chip
SGK2 (human) = SGK2 (human) (UniProt Q9HBY8); assay: Caliper, Mobility shift assay off-chip
Sequence of SGK2 (human) (Q9HBY8 whole entry, looked up): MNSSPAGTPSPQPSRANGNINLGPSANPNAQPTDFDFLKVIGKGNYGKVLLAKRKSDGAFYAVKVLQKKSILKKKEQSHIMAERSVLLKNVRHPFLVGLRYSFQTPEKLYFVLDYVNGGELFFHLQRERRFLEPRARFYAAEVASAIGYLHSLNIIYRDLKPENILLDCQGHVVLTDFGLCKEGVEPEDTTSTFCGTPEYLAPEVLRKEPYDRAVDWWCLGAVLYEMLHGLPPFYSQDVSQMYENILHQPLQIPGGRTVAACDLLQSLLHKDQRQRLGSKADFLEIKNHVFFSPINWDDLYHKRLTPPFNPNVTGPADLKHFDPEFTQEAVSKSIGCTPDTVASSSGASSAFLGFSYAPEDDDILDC

STK3 (human) = STK3 (human) (UniProt Q13188); assay: Caliper, Mobility shift assay off-chip
Sequence of STK3 (human) (Q13188 whole entry, looked up): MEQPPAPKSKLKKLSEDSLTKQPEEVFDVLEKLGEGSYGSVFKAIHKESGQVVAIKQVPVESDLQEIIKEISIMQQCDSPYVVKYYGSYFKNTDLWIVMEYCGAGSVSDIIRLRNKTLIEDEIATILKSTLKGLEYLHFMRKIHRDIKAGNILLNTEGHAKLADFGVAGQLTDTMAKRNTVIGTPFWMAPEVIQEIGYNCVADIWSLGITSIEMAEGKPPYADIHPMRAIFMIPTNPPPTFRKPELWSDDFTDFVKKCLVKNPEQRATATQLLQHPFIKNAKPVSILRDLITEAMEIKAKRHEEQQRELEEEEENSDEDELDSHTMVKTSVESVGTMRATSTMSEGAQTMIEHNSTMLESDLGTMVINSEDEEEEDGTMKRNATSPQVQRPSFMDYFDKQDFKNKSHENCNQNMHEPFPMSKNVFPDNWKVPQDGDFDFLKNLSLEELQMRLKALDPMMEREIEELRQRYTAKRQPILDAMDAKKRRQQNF

TXK (human) = TXK (human) (UniProt P42681); assay: Caliper, Mobility shift assay off-chip
Sequence of TXK (human) (P42681 whole entry, looked up): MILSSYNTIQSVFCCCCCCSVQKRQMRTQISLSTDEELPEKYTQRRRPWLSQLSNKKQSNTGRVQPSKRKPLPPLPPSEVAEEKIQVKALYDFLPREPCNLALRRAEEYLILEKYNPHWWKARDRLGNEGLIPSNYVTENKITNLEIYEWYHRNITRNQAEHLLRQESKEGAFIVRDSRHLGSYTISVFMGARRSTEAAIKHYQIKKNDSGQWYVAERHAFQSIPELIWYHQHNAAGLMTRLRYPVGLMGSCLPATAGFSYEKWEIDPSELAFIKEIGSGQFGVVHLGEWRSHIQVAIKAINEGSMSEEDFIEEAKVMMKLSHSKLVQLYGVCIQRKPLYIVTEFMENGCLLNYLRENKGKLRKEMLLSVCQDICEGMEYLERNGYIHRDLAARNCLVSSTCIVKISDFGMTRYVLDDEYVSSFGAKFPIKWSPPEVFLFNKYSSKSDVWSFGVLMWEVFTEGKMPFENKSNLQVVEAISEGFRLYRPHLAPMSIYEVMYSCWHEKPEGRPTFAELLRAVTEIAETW

TYK2 JH1 JH2 (human) = TYK2 JH1 JH2 (human) (UniProt P29597); assay: Caliper, Mobility shift assay off-chip
TYRO3 (human) = TYRO3 (human) (UniProt Q06418); assay: Caliper, Mobility shift assay off-chip
AURKB (human) = AURKB (human) (UniProt Q96GD4); assay: Caliper, Mobility shift assay off-chip
DDR2 (human) = DDR2 (human) (UniProt Q16832); assay: Caliper, Mobility shift assay off-chip
FLT3 (human) = FLT3 (human) (UniProt P36888); assay: Caliper, Mobility shift assay off-chip

Sequence of EIF2AK3 (human) (Q9NZJ5 whole entry, looked up): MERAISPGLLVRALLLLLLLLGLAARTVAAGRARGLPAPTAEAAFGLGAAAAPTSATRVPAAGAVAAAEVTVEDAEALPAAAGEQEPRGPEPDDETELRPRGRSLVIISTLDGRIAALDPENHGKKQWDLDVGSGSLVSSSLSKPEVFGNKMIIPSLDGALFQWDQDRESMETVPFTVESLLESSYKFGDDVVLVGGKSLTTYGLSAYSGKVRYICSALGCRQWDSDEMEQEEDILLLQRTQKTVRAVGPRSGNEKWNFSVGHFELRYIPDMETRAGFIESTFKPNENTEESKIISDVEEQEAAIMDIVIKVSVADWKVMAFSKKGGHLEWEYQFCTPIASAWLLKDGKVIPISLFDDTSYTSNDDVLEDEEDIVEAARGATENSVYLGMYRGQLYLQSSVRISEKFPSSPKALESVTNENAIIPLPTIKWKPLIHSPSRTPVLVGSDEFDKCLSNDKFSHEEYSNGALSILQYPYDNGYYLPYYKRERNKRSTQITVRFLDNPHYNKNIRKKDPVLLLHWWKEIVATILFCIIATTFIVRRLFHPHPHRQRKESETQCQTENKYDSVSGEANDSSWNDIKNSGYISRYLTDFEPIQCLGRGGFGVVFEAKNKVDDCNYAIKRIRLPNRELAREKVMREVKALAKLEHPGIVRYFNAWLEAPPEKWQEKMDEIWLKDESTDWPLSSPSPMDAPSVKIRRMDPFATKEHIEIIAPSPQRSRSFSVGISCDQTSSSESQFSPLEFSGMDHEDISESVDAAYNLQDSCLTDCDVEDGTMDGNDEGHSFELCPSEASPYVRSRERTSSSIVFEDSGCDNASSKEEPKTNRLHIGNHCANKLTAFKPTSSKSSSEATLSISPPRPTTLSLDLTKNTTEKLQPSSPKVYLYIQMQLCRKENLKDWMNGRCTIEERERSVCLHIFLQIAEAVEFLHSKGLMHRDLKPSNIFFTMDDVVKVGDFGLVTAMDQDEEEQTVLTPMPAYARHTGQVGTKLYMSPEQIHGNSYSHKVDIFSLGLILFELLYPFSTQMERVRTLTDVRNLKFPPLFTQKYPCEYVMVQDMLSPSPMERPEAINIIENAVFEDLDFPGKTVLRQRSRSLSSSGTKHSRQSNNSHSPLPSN
Sequence of PKN1 (human) (Q16512 whole entry, looked up): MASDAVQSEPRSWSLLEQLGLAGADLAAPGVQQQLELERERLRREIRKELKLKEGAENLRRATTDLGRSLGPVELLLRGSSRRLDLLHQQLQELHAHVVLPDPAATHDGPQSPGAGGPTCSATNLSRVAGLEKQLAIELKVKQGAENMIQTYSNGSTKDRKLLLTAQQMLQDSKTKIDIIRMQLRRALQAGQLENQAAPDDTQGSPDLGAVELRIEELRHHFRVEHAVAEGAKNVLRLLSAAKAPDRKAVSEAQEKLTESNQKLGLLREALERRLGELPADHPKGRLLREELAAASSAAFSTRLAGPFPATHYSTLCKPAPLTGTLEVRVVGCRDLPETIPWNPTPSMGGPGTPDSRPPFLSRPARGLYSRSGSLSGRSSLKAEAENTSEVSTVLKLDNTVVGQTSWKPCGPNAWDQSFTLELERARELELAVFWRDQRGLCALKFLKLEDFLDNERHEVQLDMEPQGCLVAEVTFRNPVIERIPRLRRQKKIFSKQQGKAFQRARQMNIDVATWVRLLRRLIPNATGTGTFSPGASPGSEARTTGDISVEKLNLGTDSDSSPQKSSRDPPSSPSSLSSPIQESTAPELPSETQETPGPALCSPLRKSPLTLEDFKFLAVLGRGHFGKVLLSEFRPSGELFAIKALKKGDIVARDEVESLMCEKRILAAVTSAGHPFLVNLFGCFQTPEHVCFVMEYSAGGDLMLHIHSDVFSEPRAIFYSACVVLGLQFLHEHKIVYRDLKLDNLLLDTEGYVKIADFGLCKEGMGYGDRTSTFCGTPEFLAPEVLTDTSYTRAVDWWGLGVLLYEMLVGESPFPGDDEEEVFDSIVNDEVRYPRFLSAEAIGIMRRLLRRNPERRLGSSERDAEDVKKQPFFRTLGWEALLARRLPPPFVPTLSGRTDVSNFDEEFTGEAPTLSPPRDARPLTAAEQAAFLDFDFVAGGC

Structure (SMILES): CNC(=O)c1cc(Oc2ccc(NC(=O)Nc3ccc(Cl)c(C(F)(F)F)c3)cc2)ccn1
- inhibition (EIF2AK2 (human); compound 0.02 µM): -12.3%
- inhibition (EIF2AK2 (human); compound 0.2 µM): -14.3%
- inhibition (EIF2AK3 (human); compound 0.02 µM): -23.9%
- inhibition (EIF2AK3 (human); compound 0.2 µM): 4.5%
- inhibition (PKN1 (human); compound 0.02 µM): -40.2%
- inhibition (PKN1 (human); compound 0.2 µM): -39.4%
- inhibition (PLK2 (human); compound 0.02 µM): -0.6%
- inhibition (PLK2 (human); compound 0.2 µM): -2.1%
- inhibition (SRPK1 (human); compound 0.02 µM): -5.4%
- inhibition (SRPK1 (human); compound 0.2 µM): 0.2%
- inhibition (AKT3 (human); compound 0.02 µM): -2.6%
- inhibition (AKT3 (human); compound 0.2 µM): -1.1%
- inhibition (AURKA (human); compound 0.02 µM): -1.5%
- inhibition (AURKA (human); compound 0.2 µM): 5.4%
- inhibition (BRSK1 (human); compound 0.02 µM): -2.6%
- inhibition (BRSK1 (human); compound 0.2 µM): -6%
- inhibition (CDK6 (human); compound 0.02 µM): 0.1%
- inhibition (CDK6 (human); compound 0.2 µM): 2%
- inhibition (EPHA3 (human); compound 0.02 µM): -2.6%
- inhibition (EPHA3 (human); compound 0.2 µM): 17%
- inhibition (FLT1 (human); compound 0.02 µM): 49.3%
- inhibition (FLT1 (human); compound 0.2 µM): 99.6%
- inhibition (GSK3A (human); compound 0.02 µM): -3.9%
- inhibition (GSK3A (human); compound 0.2 µM): 6.8%
- inhibition (HCK (human); compound 0.02 µM): -11.6%
- inhibition (HCK (human); compound 0.2 µM): 5.2%
- inhibition (INSR (human); compound 0.02 µM): -8.9%
- inhibition (INSR (human); compound 0.2 µM): 2.1%
- inhibition (ITK (human); compound 0.02 µM): -2.9%
- inhibition (ITK (human); compound 0.2 µM): 7.5%
- inhibition (JAK1 JH1 JH2 (human); compound 0.02 µM): -1.7%
- inhibition (JAK1 JH1 JH2 (human); compound 0.2 µM): 3.1%
- inhibition (JAK3 JH1 JH2 (human); compound 0.02 µM): -3.6%
- inhibition (JAK3 JH1 JH2 (human); compound 0.2 µM): 8.1%
- inhibition (MET (human); compound 0.02 µM): -12.2%
- inhibition (MET (human); compound 0.2 µM): 4.4%
- inhibition (MST4 (human); compound 0.02 µM): -5.7%
- inhibition (MST4 (human); compound 0.2 µM): 0.1%
- inhibition (NEK9 (human); compound 0.02 µM): -3.7%
- inhibition (NEK9 (human); compound 0.2 µM): -5.9%
- inhibition (PAK3 (human); compound 0.02 µM): -1.4%
- inhibition (PAK3 (human); compound 0.2 µM): 2.1%
- inhibition (PIM3 (human); compound 0.02 µM): -1.8%
- inhibition (PIM3 (human); compound 0.2 µM): -4.2%
- inhibition (PRKCD (human); compound 0.02 µM): -1.7%
- inhibition (PRKCD (human); compound 0.2 µM): 11.7%
- inhibition (ROCK2 (human); compound 0.02 µM): -2%
- inhibition (ROCK2 (human); compound 0.2 µM): 2.8%
- inhibition (ROS1 (human); compound 0.2 µM): 1.3%
- inhibition (RPS6KA5 KD1 KD2 (human); compound 0.02 µM): -2.5%
- inhibition (RPS6KA5 KD1 KD2 (human); compound 0.2 µM): 0.1%
- inhibition (SGK2 (human); compound 0.02 µM): -0.9%
- inhibition (SGK2 (human); compound 0.2 µM): 8.4%
- inhibition (STK3 (human); compound 0.02 µM): -3.3%
- inhibition (STK3 (human); compound 0.2 µM): -1.9%
- inhibition (TXK (human); compound 0.02 µM): -6.1%
- inhibition (TXK (human); compound 0.2 µM): 5.8%
- inhibition (TYK2 JH1 JH2 (human); compound 0.02 µM): -2.4%
- inhibition (TYRO3 (human); compound 0.02 µM): -9.4%
- inhibition (TYRO3 (human); compound 0.2 µM): 3.7%

Structure (SMILES): Cc1ccc(Nc2nccc(N(C)c3ccc4c(C)n(C)nc4c3)n2)cc1S(N)(=O)=O
- inhibition (EIF2AK3 (human); compound 0.02 µM): -15%
- inhibition (EIF2AK3 (human); compound 0.2 µM): -17%
- inhibition (PKN1 (human); compound 0.02 µM): -20.5%
- inhibition (PKN1 (human); compound 0.2 µM): -27.6%
- inhibition (PLK2 (human); compound 0.02 µM): 3.9%
- inhibition (PLK2 (human); compound 0.2 µM): -0.8%
- inhibition (SRPK1 (human); compound 0.02 µM): -6.8%
- inhibition (SRPK1 (human); compound 0.2 µM): -3.6%
- inhibition (AKT3 (human); compound 0.02 µM): -3.2%
- inhibition (AKT3 (human); compound 0.2 µM): -2.6%
- inhibition (AURKA (human); compound 0.02 µM): 11.5%
- inhibition (AURKA (human); compound 0.2 µM): 40.7%
- inhibition (AURKB (human); compound 0.02 µM): 2.7%
- inhibition (AURKB (human); compound 0.2 µM): 12.5%
- inhibition (BRSK1 (human); compound 0.02 µM): 5.3%
- inhibition (BRSK1 (human); compound 0.2 µM): 3.2%
- inhibition (CDK6 (human); compound 0.02 µM): 6.2%
- inhibition (CDK6 (human); compound 0.2 µM): 8.2%
- inhibition (DDR2 (human); compound 0.02 µM): 34.2%
- inhibition (DDR2 (human); compound 0.2 µM): 85%
- inhibition (EPHA3 (human); compound 0.02 µM): -4.8%
- inhibition (EPHA3 (human); compound 0.2 µM): -4.4%
- inhibition (FLT1 (human); compound 0.02 µM): 66.5%
- inhibition (FLT1 (human); compound 0.2 µM): 99.8%
- inhibition (FLT3 (human); compound 0.02 µM): 24.7%
- inhibition (FLT3 (human); compound 0.2 µM): 69.9%
- inhibition (GSK3A (human); compound 0.02 µM): 1.8%
- inhibition (GSK3A (human); compound 0.2 µM): 5.1%
- inhibition (HCK (human); compound 0.02 µM): 2.6%
- inhibition (HCK (human); compound 0.2 µM): 25.1%
- inhibition (INSR (human); compound 0.02 µM): 0.3%
- inhibition (INSR (human); compound 0.2 µM): 4.5%
- inhibition (ITK (human); compound 0.02 µM): 7%
- inhibition (ITK (human); compound 0.2 µM): 2%
- inhibition (JAK1 JH1 JH2 (human); compound 0.02 µM): -2.2%
- inhibition (JAK1 JH1 JH2 (human); compound 0.2 µM): 0.8%
- inhibition (JAK3 JH1 JH2 (human); compound 0.02 µM): 4.1%
- inhibition (JAK3 JH1 JH2 (human); compound 0.2 µM): 7.7%
- inhibition (MST4 (human); compound 0.02 µM): -9.1%
- inhibition (MST4 (human); compound 0.2 µM): -4%
- inhibition (NEK9 (human); compound 0.02 µM): -3.7%
- inhibition (NEK9 (human); compound 0.2 µM): 1.4%
- inhibition (PAK3 (human); compound 0.02 µM): 5.7%
- inhibition (PAK3 (human); compound 0.2 µM): 2.6%
- inhibition (PIM3 (human); compound 0.02 µM): -3.4%
- inhibition (PIM3 (human); compound 0.2 µM): -4.2%
- inhibition (PRKCD (human); compound 0.02 µM): -1.6%
- inhibition (PRKCD (human); compound 0.2 µM): -4.4%
- inhibition (ROCK2 (human); compound 0.02 µM): -3.7%
- inhibition (ROCK2 (human); compound 0.2 µM): -1.3%
- inhibition (ROS1 (human); compound 0.02 µM): 17.8%
- inhibition (ROS1 (human); compound 0.2 µM): 69.7%
- inhibition (RPS6KA5 KD1 KD2 (human); compound 0.02 µM): -4.7%
- inhibition (SGK2 (human); compound 0.02 µM): 5.5%
- inhibition (SGK2 (human); compound 0.2 µM): -0.1%
- inhibition (STK3 (human); compound 0.02 µM): -1.9%
- inhibition (STK3 (human); compound 0.2 µM): -4.2%
- inhibition (TXK (human); compound 0.02 µM): 3.3%
- inhibition (TXK (human); compound 0.2 µM): 27.4%
- inhibition (TYK2 JH1 JH2 (human); compound 0.02 µM): 3.7%
- inhibition (TYK2 JH1 JH2 (human); compound 0.2 µM): 7.2%
- inhibition (TYRO3 (human); compound 0.02 µM): 2.3%
- inhibition (TYRO3 (human); compound 0.2 µM): 10.6%
